Consider 5 molecules from US20240115470A1, “METHYL-FLUORO-HYDROXYBENZOATES IN CONSUMER PRODUCTS” (GIVAUDAN SA, priority 2020, published 2024).

Assay [1] is described as follows: Assessment of the odor profile on smelling strips by panellists, compared to methyl salicylate. The settings on record: for Odor description: compound @10 wt % in polyethylene glycol, freshly dipped on smelling strips, compared to methyl salicylate; for odor profile compared to methyl salicylate (summary statement) / sweet aspect of odor profile: general statement in description. As to the method:
A 10 wt % solution of the purified samples of Example 1 were prepared (compound @10 wt % in polyethylene glycol). The odor profile was assessed freshly dipped on smelling strips.
Panellists have been asked to provide an odor description as compared to methyl salicylate.

Assay [2] can be described thus: GC-odor threshold concentration (gas chromatograph with sniff port, panel of trained evaluators). To be noted: for odor threshold concentration compared to methyl salicylate and other methyl-fluoro-hydroxybenzoates (in words): general statement in description; for odor threshold concentration (relative): relative values, identical conditions, GC sniff port. On the procedure: Definition: The odour threshold concentration is defined as the lowest concentration of the vapour of an odorant material in the air which can be detected by smell and can be measured by standard methods known in the art.
According to standard procedures known to the person skilled in the art, threshold concentrations for volatile perfumery compounds are determined on a gas chromatograph equipped with a sniff port by a panel of trained evaluators. The lowest concentration smelled by each panelist is recorded as the individual threshold concentration expressed in ng (absolute amount of compound delivered at the sniff port).
Under identical conditions the odor threshold concentration for […]

Assay [3] in a line: Light floral cologne accord, replacement of 4 parts DPG. The settings on record: 4 parts DPG of 1000 replaced by the compound. The text has this: The accord above represents a light floral cologne accord, suitable for fine perfumery at a dosage of e.g. 5 weight %.
Without methyl salicylate, the accord lacks initial freshness and neutrality on the top note.
Thus an accord was obtained which compensates the effects normally achieved by the presence of methyl salicylate, thus a useful compensation of methyl salicylate is obtained.

A short description of assay [4]: Replacement of methyl salicylate in wintergreen flavor formulation for toothpaste. The settings on record: 20 parts methyl salicylate replaced by 0.2 parts compound and 19.8 parts PG. From the text:
The formulation above is a typical wintergreen type flavor suitable for the use in toothpaste products, at a dosage of, e.g. 1.2 wt %.

Assay [5] is described as follows: Replacement of methyl salicylate in wintergreen flavor formulation for mouthwash. To be noted: 20 parts methyl salicylate replaced by 0.2 parts compound and 19.8 parts PG. From the text: The formulation above is a typical wintergreen type flavor suitable for the use in mouthwash products, at a dosage of, e.g. 0.3 wt %.

As for `COC(=O)c1c(O)cccc1F` [methyl 2-fluoro-6-hydroxybenzoate], in assay [1], the Odor description result is given as “Sweetness, elements of wintergreen,”; the “odor profile compared to methyl salicylate (summary statement)” value is listed as “very similar to methyl salicylate”; the “sweet aspect of odor profile” value was “possessing these sweet aspect”. Further, in assay [2], the “odor threshold concentration compared to methyl salicylate and other methyl-fluoro-hydroxybenzoates (in words)” value is given as “surprisingly low”; the “odor threshold concentration (relative)” value turned out to be 1.

Take `COC(=O)c1ccccc1O` [methyl 2-hydroxybenzoate, reference compound]: the “odor threshold concentration (relative)” value in assay [2] turned out to be 22. The “olfactory effect on accord” value in assay [3] is recorded as “helps to reinforce the fresh, transparent, natural top note”.

On to `COC(=O)c1cccc(F)c1O` [methyl 3-fluoro-2-hydroxybenzoate, reference compound], for which, in assay [1], the Odor description entry was “Medicinal note, technical”. The “odor threshold concentration (relative)” value in assay [2] stood at 42.

For `COC(=O)c1ccc(F)cc1O` [methyl 4-fluoro-2-hydroxybenzoate], in assay [1], the Odor description entry was “Wintergreen, typical methyl salicylate”; the “odor profile compared to methyl salicylate (summary statement)” value is reported as “very similar to methyl salicylate”; the “sweet aspect of odor profile” value is “possessing these sweet aspect”. Also, in assay [2], the “odor threshold concentration compared to methyl salicylate and other methyl-fluoro-hydroxybenzoates (in words)” value is “surprisingly low”; the “odor threshold concentration (relative)” value is listed as 4. Further, the “odor threshold concentration, times lower than methyl 3-fluoro-2-hydroxybenzoate” value in assay [2] (versus methyl 3-fluoro-2-hydroxybenzoate) is on record as “more than 10 times”. In assay [2] (versus methyl salicylate), the “odor threshold concentration, times lower than methyl salicylate” value was “more than 5 times”. Also, the “flavor profile after replacement of methyl salicylate” value in assay [4] was “profile with very similar characteristics”. The “flavor profile after replacement of methyl salicylate” value in assay [5] was “profile with very similar characteristics”. The “olfactory effect on accord” value in assay [3] is “fresh and green natural effect on the top note”.

As for `COC(=O)c1cc(F)ccc1O` [methyl 5-fluoro-2-hydroxybenzoate, reference compound], the Odor description entry in assay [1] was “less sweetness, methyl salicylate character”. Also, the “odor threshold concentration (relative)” value in assay [2] is reported as 36.
